Data on three molecules can be found in ChEMBL document CHEMBL1153484, “Design, synthesis and evaluation of N-[(3S)-pyrrolidin-3-yl]benzamides as selective noradrenaline reuptake inhibitors: CNS penetration in a more polar template” (Bioorg Med Chem Lett, 2009).

The target of data set [1] is Sodium-dependent noradrenaline transporter (Homo sapiens, UniProt P23975). Put plainly: Displacement of [3H]nisoxetine from human recombinant NET expressed in HEK293 cells by scintillation proximity assay. The data set is classed as cell-based. In general terms: In a radioligand displacement assay an active substance lowers the binding of a labelled ligand.
The nature of data set [2]: Intrinsic clearance in human liver microsomes. The data set is classed as ADME, Microsome.
The target of data set [3] is Sodium-dependent serotonin transporter (Homo sapiens, UniProt P31645). Description: Displacement of [3H]citalopram from human recombinant SERT expressed in HEK293 cells by scintillation proximity assay. The class given is cell-based.
Another data set deals with Cytochrome P450 2D6 (Homo sapiens, UniProt P10635). Description: Inhibition of CYP2D6. The data set is classed as ADME.
Data set [4] addresses Voltage-gated inwardly rectifying potassium channel KCNH2 (Homo sapiens, UniProt Q12809). Description: Displacement of [3H]dofetilide from human ERG.
Data set [5] has as its target Sodium-dependent dopamine transporter (Homo sapiens, UniProt Q01959). Description: Displacement of radioligand from human recombinant DAT expressed in HEK293 cells by scintillation proximity assay. The data set is classed as cell-based. (In general: In a scintillation proximity assay essentially only radioactivity close to the scintillant gives light.)
Data set [6] deals with MDR1 (P-gp). Description: Apparent permeability from basolateral to apical side of MDCK cells expressing MDR1 at 10 uM. The data set is classed as ADME, cell-based, Canis lupus familiaris. The conditions noted are these: dog.
A short description of data set [7]: Binding affinity to sodium channel site 2.
Data set [8] has as its target T1, Cytochrome P450 3A4 (Homo sapiens, UniProt P08684). Put plainly: Inhibition of CYP3A4 using testosterone as substrate. The data set is classed as ADME.
The subject of data set [9] is MDR1 (P-gp). Put plainly: Apparent permeability from apical to basolateral side of MDCK cells expressing MDR1 at 10 uM. The data set is classed as ADME, cell-based, Canis lupus familiaris. The conditions noted are these: dog.
Another data set has as its target hERG (KCNH2) (Homo sapiens, UniProt Q12809). Put plainly: Displacement of [3H]dofetilide from human ERG at 10 uM. The conditions noted are these: probe [3H]dofetilide.
Data set [10] has as its system Rattus norvegicus. Description: Ex vivo NET occupancy in rat neocortical tissue at 3 mg/kg, sc after 1 hr by [3H]nisoxetine binding assay. The data set is classed as functional. The conditions noted are these: route subcutaneous.
For data set [11], the system named is Rattus norvegicus. Description: Effect on dihydroxyphenylacetic acid level in rat prefrontal cortex up to 3.2 mg/kg, sc by microdialysis method. The data set is classed as functional, organism-based. Set-up: dose 3.2 mg/kg.
For data set [12], the target named is T2, Muscarinic acetylcholine receptor M4 (Homo sapiens) (UniProt P08173).
T2 sequence (whole entry): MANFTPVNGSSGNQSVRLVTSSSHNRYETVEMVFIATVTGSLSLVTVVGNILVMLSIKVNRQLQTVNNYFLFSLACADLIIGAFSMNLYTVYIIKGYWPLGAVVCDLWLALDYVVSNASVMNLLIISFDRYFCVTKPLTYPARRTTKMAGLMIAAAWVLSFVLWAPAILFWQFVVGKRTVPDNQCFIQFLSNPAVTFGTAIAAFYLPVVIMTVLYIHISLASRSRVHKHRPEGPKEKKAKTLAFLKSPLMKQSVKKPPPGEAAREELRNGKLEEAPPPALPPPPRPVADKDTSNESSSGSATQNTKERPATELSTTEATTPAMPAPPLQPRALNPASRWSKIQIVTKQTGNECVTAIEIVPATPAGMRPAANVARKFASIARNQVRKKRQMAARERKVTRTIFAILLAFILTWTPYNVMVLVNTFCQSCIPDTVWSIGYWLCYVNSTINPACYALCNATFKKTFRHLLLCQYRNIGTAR
Put plainly: Binding affinity to human muscarinic M4 receptor at 10 uM.

The target of another data set is T3, Cytochrome P450 1A2 (Homo sapiens, UniProt P05177).
T3 sequence (P05177 whole entry): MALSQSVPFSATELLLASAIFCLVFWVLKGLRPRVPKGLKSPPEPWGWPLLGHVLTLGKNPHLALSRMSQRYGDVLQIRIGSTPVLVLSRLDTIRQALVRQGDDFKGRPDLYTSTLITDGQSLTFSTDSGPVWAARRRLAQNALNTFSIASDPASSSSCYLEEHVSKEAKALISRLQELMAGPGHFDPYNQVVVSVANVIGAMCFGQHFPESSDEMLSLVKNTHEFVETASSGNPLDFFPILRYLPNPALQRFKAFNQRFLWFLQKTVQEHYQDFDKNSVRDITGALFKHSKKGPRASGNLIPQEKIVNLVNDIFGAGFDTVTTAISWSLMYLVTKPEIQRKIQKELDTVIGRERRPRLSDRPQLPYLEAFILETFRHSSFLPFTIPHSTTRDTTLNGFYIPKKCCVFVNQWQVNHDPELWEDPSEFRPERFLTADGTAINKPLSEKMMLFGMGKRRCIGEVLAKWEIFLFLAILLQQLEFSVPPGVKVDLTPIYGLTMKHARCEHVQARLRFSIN
Put plainly: Inhibition of CYP1A2. The data set is classed as ADME.

Data set [13] deals with Rattus norvegicus. Description: Increase in noradrenaline level in interstitial fluid of rat prefrontal cortex at 0.3 to 3.2 mg/kg, sc by microdialysis method relative to baseline level. The conditions noted are these: dose mg/kg 0.3-3.2; route subcutaneous. The data set is classed as functional.
The test system of data set [14] is MDR1 (P-gp). Description: Efflux ratio of permeability from […] in MDCK cells expressing MDR1 at 10 uM. The class given is ADME, cell-based, Canis lupus familiaris. The conditions noted are these: dog.
Data set [15] concerns Rattus norvegicus. Put plainly: Effect on 5-hydroxyindoleacetic acid level in rat prefrontal cortex up to 3.2 mg/kg, sc by microdialysis method. The class given is functional, organism-based. More on the design: dose 3.2 mg/kg.
A further data set addresses Cytochrome P450 2C19 (Homo sapiens, UniProt P33261). Put plainly: Inhibition of CYP2C19. The data set is classed as ADME.
Data set [16] has as its target T1, Cytochrome P450 3A4. Description: Inhibition of CYP3A4 using felodipine as substrate. The class given is ADME.
Data set [17] can be described thus: Apparent permeability from basolateral to apical side of human Caco-2 cells at 10 uM. The class given is ADME, cell-based. On the technique in general: Caco-2 monolayers are a common model of the intestinal barrier.
Data set [18] addresses T4, Muscarinic acetylcholine receptor M4 (Homo sapiens, UniProt P08173).
T4 sequence (P08173 whole entry): T2 sequence (whole entry)
Put plainly: Binding affinity to human muscarinic M4 receptor.

Data set [19] concerns the target T5, Muscarinic acetylcholine receptor M5 (Homo sapiens, UniProt P08912).
T5 sequence (P08912 whole entry): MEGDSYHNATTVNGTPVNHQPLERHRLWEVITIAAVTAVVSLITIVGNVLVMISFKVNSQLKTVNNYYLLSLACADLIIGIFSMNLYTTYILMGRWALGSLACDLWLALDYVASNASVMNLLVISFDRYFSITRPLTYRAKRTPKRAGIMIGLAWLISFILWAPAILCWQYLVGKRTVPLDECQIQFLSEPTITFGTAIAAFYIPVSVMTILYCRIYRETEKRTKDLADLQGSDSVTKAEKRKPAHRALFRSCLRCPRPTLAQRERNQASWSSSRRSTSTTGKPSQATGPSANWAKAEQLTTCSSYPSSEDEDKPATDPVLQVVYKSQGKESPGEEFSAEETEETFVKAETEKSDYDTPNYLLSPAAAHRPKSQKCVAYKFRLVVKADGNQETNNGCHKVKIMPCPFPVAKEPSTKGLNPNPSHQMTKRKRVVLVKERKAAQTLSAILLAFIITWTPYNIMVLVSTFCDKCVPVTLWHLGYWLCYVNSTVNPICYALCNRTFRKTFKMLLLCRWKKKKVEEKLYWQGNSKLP
Description: Binding affinity to human muscarinic M5 receptor.

In data set [20] the target is T6, Muscarinic acetylcholine receptor M5 (Homo sapiens) (UniProt P08912).
T6 sequence (whole entry): T5 sequence (P08912 whole entry)
Description: Binding affinity to human muscarinic M5 receptor at 10 uM.

The next data set concerns the target Transporter (Rattus norvegicus, UniProt Q63380). Put plainly: Binding affinity to rat NET expressed in HEK293 cells. The data set is classed as cell-based.
The nature of data set [21]: Dissociation constant, pKa of the compound. The class given is physicochemical.
A further data set concerns the target Cytochrome P450 2C9 (Homo sapiens, UniProt P11712). Put plainly: Inhibition of CYP2C9. The class given is ADME.
For data set [22], the target named is T1, Cytochrome P450 3A4. Put plainly: Inhibition of CYP3A4 using midazolam as substrate. The data set is classed as ADME.
For data set [23], the target named is Sodium channel protein type 5 subunit alpha (Homo sapiens, UniProt Q14524). Description: Blockade of Nav1.5 sodium channel.
The nature of data set [24]: Apparent permeability from apical to basolateral side of human Caco-2 cells at 10 uM. The data set is classed as ADME, cell-based.

The source made the active and inactive calls. The calls are words filed in the database; no cut-off is given here.

Chain of Voltage-gated inwardly rectifying potassium channel KCNH2 (Q12809 whole entry): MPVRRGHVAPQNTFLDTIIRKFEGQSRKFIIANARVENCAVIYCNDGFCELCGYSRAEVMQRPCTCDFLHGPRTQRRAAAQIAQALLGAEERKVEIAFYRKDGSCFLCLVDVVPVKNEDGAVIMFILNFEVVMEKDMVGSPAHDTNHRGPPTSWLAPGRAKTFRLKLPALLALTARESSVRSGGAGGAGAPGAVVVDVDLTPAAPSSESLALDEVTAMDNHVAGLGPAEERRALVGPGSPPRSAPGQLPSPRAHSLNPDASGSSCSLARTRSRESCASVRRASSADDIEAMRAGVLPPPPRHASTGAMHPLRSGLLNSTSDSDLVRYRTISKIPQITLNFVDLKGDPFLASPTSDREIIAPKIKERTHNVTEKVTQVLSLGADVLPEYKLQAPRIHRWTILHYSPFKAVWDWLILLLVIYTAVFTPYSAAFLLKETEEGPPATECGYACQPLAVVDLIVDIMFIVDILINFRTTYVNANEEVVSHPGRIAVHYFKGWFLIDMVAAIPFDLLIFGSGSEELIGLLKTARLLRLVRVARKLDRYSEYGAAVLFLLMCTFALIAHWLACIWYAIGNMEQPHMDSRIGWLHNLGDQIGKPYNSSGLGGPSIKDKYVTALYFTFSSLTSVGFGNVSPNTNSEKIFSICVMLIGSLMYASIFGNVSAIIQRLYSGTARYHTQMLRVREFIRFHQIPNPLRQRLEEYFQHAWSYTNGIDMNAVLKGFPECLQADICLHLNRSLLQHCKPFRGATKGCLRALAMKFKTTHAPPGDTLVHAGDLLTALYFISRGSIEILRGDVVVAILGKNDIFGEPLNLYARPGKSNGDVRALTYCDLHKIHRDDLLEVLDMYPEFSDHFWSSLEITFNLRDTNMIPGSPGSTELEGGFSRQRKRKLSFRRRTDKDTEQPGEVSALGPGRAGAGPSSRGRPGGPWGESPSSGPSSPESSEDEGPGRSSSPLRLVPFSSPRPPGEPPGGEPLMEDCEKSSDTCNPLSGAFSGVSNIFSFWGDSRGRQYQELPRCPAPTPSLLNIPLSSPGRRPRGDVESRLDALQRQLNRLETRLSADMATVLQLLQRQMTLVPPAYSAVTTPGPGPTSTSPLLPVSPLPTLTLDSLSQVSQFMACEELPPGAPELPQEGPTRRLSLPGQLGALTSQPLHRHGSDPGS
T1 sequence (P08684 whole entry): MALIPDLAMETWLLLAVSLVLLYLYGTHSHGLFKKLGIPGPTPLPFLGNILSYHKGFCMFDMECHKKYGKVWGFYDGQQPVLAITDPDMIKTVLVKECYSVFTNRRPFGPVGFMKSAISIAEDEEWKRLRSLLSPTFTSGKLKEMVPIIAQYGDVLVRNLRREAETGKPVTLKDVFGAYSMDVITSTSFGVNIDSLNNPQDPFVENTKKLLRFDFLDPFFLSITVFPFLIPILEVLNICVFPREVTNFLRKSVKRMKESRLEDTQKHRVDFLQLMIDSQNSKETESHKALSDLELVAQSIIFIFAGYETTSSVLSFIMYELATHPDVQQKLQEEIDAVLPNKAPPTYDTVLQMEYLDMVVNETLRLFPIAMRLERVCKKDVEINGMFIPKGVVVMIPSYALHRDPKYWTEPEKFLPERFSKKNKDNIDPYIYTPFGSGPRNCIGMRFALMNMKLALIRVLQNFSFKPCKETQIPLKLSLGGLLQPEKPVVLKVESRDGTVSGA
Chain of Sodium-dependent dopamine transporter (Q01959 whole entry): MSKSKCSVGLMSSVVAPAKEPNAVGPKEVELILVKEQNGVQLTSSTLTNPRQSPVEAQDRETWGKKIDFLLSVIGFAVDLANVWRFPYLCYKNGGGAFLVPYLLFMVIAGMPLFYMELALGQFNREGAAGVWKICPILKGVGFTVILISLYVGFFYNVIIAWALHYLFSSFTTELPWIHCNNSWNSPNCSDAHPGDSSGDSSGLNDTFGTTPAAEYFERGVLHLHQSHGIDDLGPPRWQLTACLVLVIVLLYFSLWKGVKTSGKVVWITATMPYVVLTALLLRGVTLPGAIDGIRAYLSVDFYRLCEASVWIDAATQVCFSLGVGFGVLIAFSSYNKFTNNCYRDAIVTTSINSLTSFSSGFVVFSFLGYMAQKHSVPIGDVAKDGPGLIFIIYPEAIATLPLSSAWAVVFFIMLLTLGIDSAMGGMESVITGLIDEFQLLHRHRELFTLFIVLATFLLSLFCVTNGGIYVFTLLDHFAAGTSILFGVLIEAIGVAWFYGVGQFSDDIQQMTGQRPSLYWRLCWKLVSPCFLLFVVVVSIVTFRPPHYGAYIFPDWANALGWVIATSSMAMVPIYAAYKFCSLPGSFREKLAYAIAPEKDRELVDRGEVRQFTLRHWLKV
Chain of Sodium-dependent noradrenaline transporter (P23975 whole entry): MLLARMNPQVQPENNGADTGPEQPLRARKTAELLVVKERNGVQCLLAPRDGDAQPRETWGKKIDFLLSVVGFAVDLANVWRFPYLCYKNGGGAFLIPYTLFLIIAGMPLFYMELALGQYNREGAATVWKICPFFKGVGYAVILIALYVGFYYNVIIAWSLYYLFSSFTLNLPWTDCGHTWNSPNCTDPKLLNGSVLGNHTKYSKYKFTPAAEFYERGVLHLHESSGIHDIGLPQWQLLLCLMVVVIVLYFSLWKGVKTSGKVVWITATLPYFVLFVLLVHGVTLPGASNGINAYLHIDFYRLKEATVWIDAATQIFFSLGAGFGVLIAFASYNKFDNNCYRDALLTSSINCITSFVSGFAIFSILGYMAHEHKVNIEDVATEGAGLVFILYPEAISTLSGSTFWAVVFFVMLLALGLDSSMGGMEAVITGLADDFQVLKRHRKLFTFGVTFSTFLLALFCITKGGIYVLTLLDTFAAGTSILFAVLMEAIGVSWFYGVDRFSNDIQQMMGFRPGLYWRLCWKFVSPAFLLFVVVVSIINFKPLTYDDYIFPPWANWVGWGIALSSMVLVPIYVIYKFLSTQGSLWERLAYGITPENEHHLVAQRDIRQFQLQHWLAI
Chain of Cytochrome P450 2D6 (P10635 whole entry): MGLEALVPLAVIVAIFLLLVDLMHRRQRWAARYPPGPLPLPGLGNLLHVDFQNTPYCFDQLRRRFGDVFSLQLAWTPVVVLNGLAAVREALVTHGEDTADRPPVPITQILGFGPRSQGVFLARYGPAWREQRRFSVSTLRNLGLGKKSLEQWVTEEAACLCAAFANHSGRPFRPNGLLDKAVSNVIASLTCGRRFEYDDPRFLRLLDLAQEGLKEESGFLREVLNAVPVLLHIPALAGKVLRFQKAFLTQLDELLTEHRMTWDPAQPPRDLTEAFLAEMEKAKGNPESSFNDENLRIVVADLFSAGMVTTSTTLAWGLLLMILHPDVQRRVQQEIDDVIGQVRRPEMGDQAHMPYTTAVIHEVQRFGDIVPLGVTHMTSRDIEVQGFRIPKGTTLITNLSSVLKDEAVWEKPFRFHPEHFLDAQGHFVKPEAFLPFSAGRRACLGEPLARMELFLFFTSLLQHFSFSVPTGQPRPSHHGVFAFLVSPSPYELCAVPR
Chain of Sodium-dependent serotonin transporter (P31645 whole entry): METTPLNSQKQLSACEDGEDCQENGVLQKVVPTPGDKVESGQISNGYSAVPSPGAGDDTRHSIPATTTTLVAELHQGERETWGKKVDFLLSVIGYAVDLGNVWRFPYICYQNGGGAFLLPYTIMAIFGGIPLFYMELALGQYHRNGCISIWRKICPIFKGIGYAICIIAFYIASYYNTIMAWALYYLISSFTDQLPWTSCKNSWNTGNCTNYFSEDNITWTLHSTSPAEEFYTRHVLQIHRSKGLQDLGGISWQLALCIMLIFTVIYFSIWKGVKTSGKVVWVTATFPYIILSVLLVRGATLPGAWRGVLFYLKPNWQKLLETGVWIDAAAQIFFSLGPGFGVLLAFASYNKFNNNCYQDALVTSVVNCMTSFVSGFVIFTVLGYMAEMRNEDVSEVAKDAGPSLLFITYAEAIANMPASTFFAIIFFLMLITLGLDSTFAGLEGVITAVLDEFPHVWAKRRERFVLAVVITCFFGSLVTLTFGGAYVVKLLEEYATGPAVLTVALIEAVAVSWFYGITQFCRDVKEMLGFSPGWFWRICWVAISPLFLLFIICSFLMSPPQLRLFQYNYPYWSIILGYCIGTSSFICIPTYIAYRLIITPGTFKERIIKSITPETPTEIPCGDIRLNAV
Chain of Cytochrome P450 2C9 (P11712 whole entry): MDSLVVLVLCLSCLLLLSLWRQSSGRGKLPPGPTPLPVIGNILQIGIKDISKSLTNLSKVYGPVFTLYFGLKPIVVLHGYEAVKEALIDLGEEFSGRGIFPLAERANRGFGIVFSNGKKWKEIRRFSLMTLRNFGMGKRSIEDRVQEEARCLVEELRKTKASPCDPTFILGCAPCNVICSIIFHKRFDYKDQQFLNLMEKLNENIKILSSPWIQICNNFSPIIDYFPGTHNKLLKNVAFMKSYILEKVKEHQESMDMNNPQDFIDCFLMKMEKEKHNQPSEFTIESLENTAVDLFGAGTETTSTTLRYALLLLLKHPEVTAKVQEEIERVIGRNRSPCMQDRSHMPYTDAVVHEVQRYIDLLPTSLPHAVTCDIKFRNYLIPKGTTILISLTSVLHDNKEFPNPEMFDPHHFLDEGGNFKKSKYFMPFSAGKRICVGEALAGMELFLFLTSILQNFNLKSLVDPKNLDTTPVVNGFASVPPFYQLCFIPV
Chain of Cytochrome P450 2C19 (P33261 whole entry): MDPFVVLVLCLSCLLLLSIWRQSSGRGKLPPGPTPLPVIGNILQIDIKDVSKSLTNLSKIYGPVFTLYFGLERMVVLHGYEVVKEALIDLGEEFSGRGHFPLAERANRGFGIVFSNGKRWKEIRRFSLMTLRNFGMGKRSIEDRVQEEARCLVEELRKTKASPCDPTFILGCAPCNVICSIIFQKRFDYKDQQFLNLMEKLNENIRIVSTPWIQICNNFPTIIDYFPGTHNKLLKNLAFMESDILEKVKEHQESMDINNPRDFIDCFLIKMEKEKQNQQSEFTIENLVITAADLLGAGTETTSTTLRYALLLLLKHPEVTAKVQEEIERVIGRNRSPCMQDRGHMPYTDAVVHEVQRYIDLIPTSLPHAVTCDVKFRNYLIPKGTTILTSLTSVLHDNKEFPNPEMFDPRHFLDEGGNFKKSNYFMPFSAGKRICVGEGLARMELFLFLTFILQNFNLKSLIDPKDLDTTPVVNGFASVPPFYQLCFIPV

As usually defined, the Ki is the equilibrium dissociation constant of an inhibitor or competing ligand from its target. Usually microsomal CLint stands for a measure of how fast metabolising enzymes remove a compound, apart from limits set by blood flow. A higher microsomal CLint goes with rapid turnover. Broadly, the IC50 is the concentration that gives 50% inhibition. `CCN(C(=O)c1ccccc1Oc1ccccc1)[C@H]1CCNC1`: the inhibition constant (Ki) was 0.009 µM in [1], 1.61 µM in data set [3] and 3.57 µM in data set [5]. Besides, in data set [2], the intrinsic metabolic clearance (microsomal CLint) is under 7 µL/min/mg. Moreover, the 50% inhibitory concentration (IC50) on Cytochrome P450 2D6 is over 30 µM; in [4], 5.03 µM.

What is called Papp B→A is the apparent permeability from the basolateral to the apical side of a cell layer. Broadly, the Papp A→B is how fast a substance crosses the layer from the apical side. The inhibition is how much of the control response was suppressed. Low readings indicate a response near the control, high ones a response far below the control. The term efflux ratio denotes a quotient of directional permeabilities that is used to spot active efflux. As a reminder, the pKa is the pH at which an ionisable group is half protonated. In the case of `O=C(c1ccccc1C(F)(F)F)N(CC1CCC1)[C@H]1CCNC1`, the Papp B→A at 10 µM in the data set with MDR1 (P-gp) [6] came to 57 ×10⁻⁶ cm/s; in data set [17] it was 33 ×10⁻⁶ cm/s. Moreover, the Ki in data set [7] came out at 3.7 µM; in data set [1], 0.006 µM; in data set [18], 4.3 µM; in data set [3], 0.224 µM; in [19], 1.8 µM; on Transporter, 0.0039 µM. Also, the inhibition constant (Ki) in [5] is 2.29 µM. The IC50 on Cytochrome P450 3A4 [8] was 31.2 µM; at Cytochrome P450 1A2, over 30 µM; against Cytochrome P450 2C19, over 30 µM; at Cytochrome P450 3A4 [16], 22 µM; against Cytochrome P450 2D6 it was 15.1 µM; in data set [4], over 20 µM. Moreover, the IC50 against Cytochrome P450 2C9 is over 30 µM; on Cytochrome P450 3A4 [22], 12.2 µM; in data set [23], over 26 µM. The apparent permeability from apical to basolateral (Papp A→B) at 10 µM is 11 ×10⁻⁶ cm/s in the data set on MDR1 (P-gp) [9] and 16 ×10⁻⁶ cm/s in [24]. At 10 µM the inhibition on hERG (KCNH2) was 48%. Besides, the results for the Activity with Rattus norvegicus [10] and with Rattus norvegicus [13] were 52% and 200%, respectively. The outcome in the data set with Rattus norvegicus [11] and with Rattus norvegicus [15] was inactive. Further, the inhibition in [12] and in data set [20] was over 50% each time. Also, the efflux ratio at 10 µM in the data set with MDR1 (P-gp) [14] was 5.2. The intrinsic metabolic clearance (microsomal CLint) in data set [2] was under 7 µL/min/mg. The pKa in [21] is 9.5.

On to `CC(C)c1ccccc1C(=O)N(CC1CCC1)[C@H]1CCNC1`, for which the results for the inhibition constant (Ki) in data set [1], in [3] and in [5] were 0.01 µM, 0.857 µM and 2.04 µM, respectively. In data set [2], this molecule yielded a microsomal CLint of under 9 µL/min/mg. Moreover, the IC50 against Cytochrome P450 2D6 was 3.17 µM; in [4], over 18.2 µM.
